Where two headings read alike, the source gives them in different places.

This is an account of results in patent US20080039461A1, “Treatment of pain by inhibition of p38 map kinase” (priority 2002, published 2008).

For assay [1], the system named is recovery from the procedure. As to the kind of experiment: adjunct to opioid anesthesia for Cesarean section. It counts as in vivo. The conditions noted are these: in opioid solution, subarachnoid; SL 60 mg/kg, SJ 630 mg/kg, SK 50 mg/kg.
Experimental: A person scheduled for a Cesarean section is prepared according to standard guidelines. A subarachnoid block is performed in the sitting position, following the administration of 1-2 liters of crystalloid solution. Skin infiltration with local anaesthetic is performed at the L2-3 or L3-L4 interspace. A spinal needle introducer is used to facilitate insertion of the needle into the patient. The needle is introduced into the epidural space and perforates the dura. The emergence of cerebrospinal fluid indicates proper placement of the needle. An opiod solution containing approximately 60 mg/kg of SL is administered and injected slowly of a ten to fifteen second time interval. […] The needle is then removed and resulting wound is dressed. The Cesarean section proceeds according to a standard protocol.
A person scheduled for a Cesarean section is prepared according to standard guidelines. A subarachnoid block is performed in the sitting position, following the administration of 1-2 liters of crystalloid solution. Skin infiltration with local anaesthetic is performed at the L2-3 or L3-L4 interspace. A spinal needle introducer is used to facilitate insertion of the needle into the patient. The needle is introduced into the epidural space and perforates the dura. The emergence of cerebrospinal fluid indicates proper placement of the needle. An opiod solution containing approximately 630 mg/kg of SJ is administered and injected slowly of a ten to fifteen second time interval. […] The needle is then removed and resulting wound is dressed. The Cesarean section proceeds according to a standard protocol.
A person scheduled for a Cesarean section is prepared according to standard guidelines. A subarachnoid block is performed in the sitting position, following the administration of 1-2 liters of crystalloid solution. Skin infiltration with local anaesthetic is performed at the L2-3 or L3-L4 interspace. A spinal needle introducer is used to facilitate insertion of the needle into the patient. The needle is introduced into the epidural space and perforates the dura. […]
The next assay concerns the target T1, p38 MAPK (Homo sapiens, UniProt Q16539).
T1 construct: expressed in transfected cells; host or cells: HeLa (kinase immunoprecipitated from lysates of transfected, stimulated cells)
As to the kind of experiment: p38 MAPK phosphorylation assay (similar to Kumar). It counts as biochemical. The method, then:
Alternative assays involving in vitro analysis of potential inhibitors include those where cells (HeLa) transfected with DNA coding for relevant kinases can be activated with substances such as sorbitol, IL-1, TNF, or PMA (phorbol myristate acetate). After immunoprecipitation of cell lysates, equal aliquots of immune complexes of the kinases are pre-incubated for an adequate time with a specific concentration of the potential inhibitor followed by addition of kinase substrate buffer mix containing labeled ATP and GST-ATF2 or MBP. After incubation, kinase reactions are ceased by the addition of SDS loading buffer. Phosphorylated substrate is resolved through SDS-PAGE and visualized and quantitated in a phosphorimager. Both p38 regulation, in terms of phosphorylation, and IC50 values can be determined by quantitation. […] Res. Commun. […]

Assay [2] concerns post-activity related discomfort. The assay is described as follows: pain associated with athletic endeavor. It counts as in vivo. The conditions noted are these: before a long distance race; SH 50 mg/kg, SI 20 mg/kg, SM 40 mg/kg. The method, then: A subject preparing for an athletic endeavor, the running of a long distance race, is administered approximately 50 mg/kg of SH approximately 30 minutes before the endeavor is to begin. No other analgesics or anesthetics are administered. The athlete participates in and completes the endeavor.
A subject preparing for an athletic endeavor, the running of a long distance race, is administered approximately 20 mg/kg of SI approximately 1 hours before the endeavor is to begin. No other analgesics or anesthetics are administered. The athlete participates in and completes the endeavor.
A subject preparing for an athletic endeavor, the running of a long distance race, is administered approximately 40 mg/kg of SM approximately 1 hours before the endeavor is to begin. No other analgesics or anesthetics are administered. The athlete participates in and completes the endeavor.

A further assay relates to thermal hyperalgesia. The assay is described as follows: thermal hyperalgesia, Plantar test (Hargreaves), intraplantar carrageenan. It counts as in vivo, Sprague Dawley Rats. Here is the method: (§1) The effects of p38 MAP kinase inhibitors on Mechanical and Thermal Hyperalgesia were evaluated as follows. Sprague Dawley Rats were evaluated in carageenan induced models whereby an intraplantar injection of carageenan was made into the left paw. At approximately 2 and 4 hour post carageenan, the left hind limb of each rat was assessed for the development of thermal hyperalgesia relative to a p38 MAP kinase inhibitor (SC), vehicle, indomethacin, and the vehicle for indomethacin. Indomethacin, a known nonsteroidal analgesic, was used as a control reference in this study. Assessment of mechanical and thermal hyperalgesia was accomplished through the use of a Randall Selitto Analgesiometer and the Hargreaves Plantar Device, respectively. Approximately 10 minutes after intraperitoneal dosing, or 30 minutes following oral indomethacin treatment, each animal was lightly anaesthetized (isoflurane in oxygen) and an intraplantar injection of carageenan was made into the left paw. Animals were allowed to recover from anesthesia. As set forth above in the carageenan model, the effect of SC was evaluated with respect to attenuation of the development of thermal hyperalgesia at either of the 2 and 4 hours post-carrageenan time points tested. As above with respect to mechanical hyperalgesia, observation of statistically significant thermal hyperalgesia development was made at both the 2 and 4 hour periods (8.2±1.5 s; P≦0.05 and 7.0±1.5 s; P≦0.01, respectively), compared to vehicle pre dose measurements (12.7±1.0 s). […] As set forth in Example 2 above, Sprague Dawley rats were evaluated in the intraplantar carageenan model. The animals were administered the p38 MAP kinase inhibitor SA, vehicle, indomethacin, and the vehicle for indomethacin. After dosing, the animals were assessed for the development of mechanical hyperalgesia and thermal hyperalgesia using the Randall Selitto Analgesiometer and the Hargreaves Plantar Device, respectively.

A further assay deals with mechanical hyperalgesia. The assay is described as follows: mechanical hyperalgesia, Randall Selitto test, intraplantar carrageenan. It counts as in vivo, Sprague Dawley Rats. Here is the method:
as §1, with “anesthesia. Mechanical hyperalgesia was tested using the Randall-Selittlo test. Randall, L. & Selitto, J., Arch Int Pharmacodyn (1957) 110:409-419. The carageenan model was established as” for “anesthesia. As”, “forth above. […] In” for “forth above in”, “the same animals treated with SC,” for “the carageenan model,”, “the paw withdrawal threshold increased from a” for “the effect of SC was evaluated with respect to attenuation of the development of thermal hyperalgesia at either of the 2 and 4 hours post-carrageenan time points tested. As above with respect to mechanical hyperalgesia, observation of statistically significant thermal hyperalgesia development was made at both the 2 and 4 hour periods (8.2±1.5 s; P≦0.05 and 7.0±1.5 s; P≦0.01, respectively), compared to vehicle”, “dose threshold of 159±8 g to 177±17 g, 2 hours post-carrageenan.” for “dose measurements (12.7±1.0 s).”

Assay [3] deals with carrageenan-induced thermal hyperalgesia. As to the kind of experiment: carrageenan-induced thermal hyperalgesia (Hargreaves-type device). The conditions noted are these: intravenous administration, pre injury. In kind it is in vivo, rat. The method, then:
Hyperalgesia was induced in the rat's right hindpaw by intraplantar injection of carrageenan (2 mg in 0.1 ml of a […] solution (weight/volume) in physiological saline). To assess the thermally evoked paw withdrawal time, a device modeled after that described by Hargreaves (1988) was used. See Hargreaves K, Dubner R, Brown F, Flores C, Joris J. A new and sensitive method for measuring thermal nociception in cutaneous hyperalgesia, Pain, 32, 77-88 (1988). The device consisted of a glass surface on top of which the rats were placed. The glass surface was heated by a focused projection bulb below the glass surface. The first sign of discomfort is usually expressed as an attempt to sit up and lick the forepaws by the experimental animal. This response indicates a threshold of pain under the predetermined conditions. Dancing and jumping about by an undrugged animal is an indicator of unbearable pain; whereas drugged animals more commonly withdraw the hind paws and keep them close to their abdomen. A timer was actuated with the light source and latency defined as the time required for the paw to be withdrawn from the glass surface. See Dirig D M, Isakson P C, and Yaksh T L. J Pharmacol Exp Ther., 285, 1031-8 (1998).

Assay [4] concerns discomfort of a dental procedure. The assay is described as follows: pain associated with a dental procedure. It counts as in vivo. The settings on record: approximately 1 hours before the procedure; SF 40 mg/kg, SG 20 mg/kg. Here is the method:
A subject scheduled for a dental procedure, the filling of a cavity in a tooth, is administered approximately 40 mg/kg of the p38 MAP kinase inhibitor SF approximately 1 hours before the procedure is to begin. No other analgesics or anesthetics are administered.
A subject scheduled for a dental procedure, the filling of a cavity in a tooth, is administered approximately 20 mg/kg of the p38 MAP kinase inhibitor SG approximately 1 hours before the procedure is to begin. No other analgesics or anesthetics are administered.

Assay [5] concerns NMDA-induced hyperalgesia. The assay is described as follows: hyperalgesia induced by intrathecal NMDA. It counts as in vivo, rat. The settings on record: IT NMDA 0.3 μg; MK801 10 μg, IT SD 3-60 μg, IT SB 1-30 μg, SA 10 μg. From the text:
Male Sprague-Dawley rats (300-350 g) were implanted under isoflurane anesthesia with lumbar polyethylene (PE-10) catheters according to a modified method originally described in Physiol. Behav. 17, 1031 (1976). […] IT saline and 5% DMSO alone had no effect on behavior or protein expression/phosphorylation.

Where [6] appears, read: assay similar to the phosphorylation assay (Kumar), read-out: p38 MAPK activity, relative IC50 value.

T1 sequence (Q16539 whole entry): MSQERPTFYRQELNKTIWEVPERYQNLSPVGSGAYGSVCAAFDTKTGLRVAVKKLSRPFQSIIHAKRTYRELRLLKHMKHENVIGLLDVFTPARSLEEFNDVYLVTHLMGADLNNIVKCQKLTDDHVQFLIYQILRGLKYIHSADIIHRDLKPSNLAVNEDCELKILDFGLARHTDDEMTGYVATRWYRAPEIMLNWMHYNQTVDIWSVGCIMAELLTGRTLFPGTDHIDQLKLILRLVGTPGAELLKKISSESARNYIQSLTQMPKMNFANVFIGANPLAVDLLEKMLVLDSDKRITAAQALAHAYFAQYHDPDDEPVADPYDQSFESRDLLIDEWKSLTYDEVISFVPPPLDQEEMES

For orientation: IC50 means the point on the concentration scale where inhibition reaches its midpoint. `Cc1[nH]c2cc(Cl)c(C(=O)N3CCC(Cc4ccc(F)cc4)CC3)cc2c1C(=O)C(=O)N1CCN(C)CC1` [SL]: the “recovery after Cesarean section” value in assay [1] is listed as “recovers more rapidly from the procedure”. Further, on p38 MAPK (setting [6]), the 50% inhibitory concentration (IC50) is less than 5 nM.

`Cn1cc(C(=O)C(=O)N2CCCC2)c2cc(C(=O)N3CCC(Cc4ccc(F)cc4)CC3)c(Cl)cc21` [SH]: the half-maximal inhibitory concentration (IC50) on p38 MAPK (setting [6]) was less than 5 nM. Besides, in assay [2], the post-activity related discomfort entry is reported as “reduced level of post-activity related discomfort”.

Turning to `C[C@@H]1CN(Cc2ccc(F)cc2)[C@@H](C)CN1C(=O)c1cc2c(C(=O)C(=O)N(C)C)cn(C)c2cc1Cl` [SC], the withdrawal latency in the assay on thermal hyperalgesia (Example 2, first of two dose levels (not given), 2 hours) was found to be 11.5 ± 1.1 s; in the assay on thermal hyperalgesia (Example 2, first of two dose levels (not given), 4 hours) it was 10.2 ± 1.5 s; in the assay on thermal hyperalgesia (Example 2, second of two dose levels (not given), 2 hours), 11.6 ± 1.1 s; in the assay on thermal hyperalgesia (Example 2, second of two dose levels (not given), 4 hours) it was 10.2 ± 0.9 s. Besides, the paw withdrawal threshold with mechanical hyperalgesia (Example 2, SC intraperitoneal, 2 hours post-carrageenan) is 177 ± 17 g; in the assay on mechanical hyperalgesia (Example 2, SC intraperitoneal, 4 hour post-carrageenan) it was 153 ± 14 g.

As to `COc1cc2c(cc1C(=O)N1CCC(=Cc3ccc(F)cc3)CC1)c(C(=O)C(=O)N(C)C)cn2C` [SM], the 50% inhibitory concentration (IC50) on p38 MAPK (setting [6]) is less than 5 nM. Moreover, in assay [2], the post-activity related discomfort result was “reduced level of post-activity related discomfort”.

Take `COc1ccc2c(c1)c(CC(=O)O)c(C)n2C(=O)c1ccc(Cl)cc1` [indomethacin, reference compound]: the “increase of withdrawal latency” value in the assay with thermal hyperalgesia (Example 2, 10 mg/kg p.o., 2 hours post-carrageenan) is “not significant”. Besides, the withdrawal latency turned out to be 12.5 ± 1.4 s with thermal hyperalgesia (Example 2, 10 mg/kg p.o., 4 hours); 13.1 ± 0.9 s with thermal hyperalgesia (Example 3, 10 mg/kg p.o., 2 hours); 9.3 ± 1.3 s in the assay on thermal hyperalgesia (Example 3, 10 mg/kg p.o., 4 hours). Moreover, the paw withdrawal threshold with mechanical hyperalgesia (Example 2, oral 10 mg/kg, 2 hours) was 180 ± 21 g; in the assay with mechanical hyperalgesia (Example 2, oral 10 mg/kg, 4 hours) it was 188 ± 17 g; in the assay with mechanical hyperalgesia (Example 3, oral 10 mg/kg, 4 hours), 177 ± 16 g.

Take `COc1cc2[nH]cc(C(=O)C(=O)N(C)C)c2cc1C(=O)N1CC(C)N(Cc2ccc(F)cc2)CC1C` (stereo not drawn) [SE]: at p38 MAPK (setting [6]), the half-inhibitory concentration (IC50) was less than 5 nM. Further, in assay [3], the carageenan induced hyperalgesia result was “Attenuation of the carageenan induced hyperalgesia”.

`C[C@@H]1CN(Cc2ccc(F)cc2)[C@@H](C)CN1C(=O)c1cc2c(C(=O)C(=O)N3CCOCC3)cn(C)c2cc1Cl` [SJ]: the “recovery after Cesarean section” value in assay [1] is given as “recovers more rapidly from the procedure”. The IC50 on p38 MAPK (setting [6]) is less than 5 nM.

Turning to `COc1cc2c(cc1C(=O)N1CCC(Cc3ccc(F)cc3)CC1)c(C(=O)C(=O)O)cn2C` [SF], the IC50 on p38 MAPK (setting [6]) is less than 5 nM. The “discomfort during dental procedure” value in assay [4] is “reduced level of discomfort”.

On to `COc1cc2[nH]cc(C(=O)C(=O)N3CCOCC3)c2cc1C(=O)N1CCC(Cc2ccc(F)cc2)CC1` [SK], for which the “recovery after Cesarean section” value in assay [1] is given as “recovers more rapidly from the procedure”. Moreover, the IC50 at p38 MAPK (setting [6]) was less than 5 nM.

Turning to `COCn1cc(C(=O)C(=O)N(C)C)c2cc(C(=O)N3C[C@H](C)N(Cc4ccc(F)cc4)C[C@H]3C)c(OC)cc21` [SI], at p38 MAPK, the IC50 was less than 5 nM. The post-activity related discomfort result in assay [2] is on record as “reduced level of post-activity related discomfort”.

On to `C[C@]12N[C@H](Cc3ccccc31)c1ccccc12` [MK801], for which the “hyperalgesia induced by IT NMDA” value in assay [5] is reported as “reversed”.

For `COc1cc2c(cc1C(=O)N1CC(C)C(Cc3ccc(F)cc3)CC1C)c(C(=O)C(=O)N(C)C)cn2C` (stereo not drawn) [SA], the IC50 on p38 MAPK (setting [6]) is less than 5 nM. Besides, the “attenuation of thermal hyperalgesia” value in the assay with thermal hyperalgesia (Example 3, oral, lower dose levels) is on record as “no significant attenuation”. The compound also registered a withdrawal latency in the assay on thermal hyperalgesia (Example 3, oral, 4 hours) of 11.1 ± 1.4 s. Moreover, the paw withdrawal threshold with mechanical hyperalgesia (Example 3, oral, 30 minutes prior to carrageenan, 4 hours) was found to be 159 ± 19 g.

In the case of `COc1cc2c(cc1C(=O)N1CCC(Cc3ccc(F)cc3)CC1)c(C(=O)C(=O)N1CCN(C)CC1)cn2C` [SG], the IC50 on p38 MAPK (setting [6]) was less than 5 nM. Further, the “discomfort during dental procedure” value in assay [4] was “reduced level of discomfort”.
